Data from patent publication US20100086599A1, “ORAL MODIFIED RELEASE FORMULATIONS” (KAIROSMED GMBH, priority 2006, published 2010).
“Also recorded” adds a separate entry of the source. Like-named read-outs stand apart in the source and are kept apart here.

Experiments:
[1] = tested on: SHBG or CBG serum levels; details: in vivo; cited from earlier work
[2] = target: T1, SHBG (Homo sapiens, UniProt P04278); details: cited from earlier work
T1 sequence (P04278 30-402): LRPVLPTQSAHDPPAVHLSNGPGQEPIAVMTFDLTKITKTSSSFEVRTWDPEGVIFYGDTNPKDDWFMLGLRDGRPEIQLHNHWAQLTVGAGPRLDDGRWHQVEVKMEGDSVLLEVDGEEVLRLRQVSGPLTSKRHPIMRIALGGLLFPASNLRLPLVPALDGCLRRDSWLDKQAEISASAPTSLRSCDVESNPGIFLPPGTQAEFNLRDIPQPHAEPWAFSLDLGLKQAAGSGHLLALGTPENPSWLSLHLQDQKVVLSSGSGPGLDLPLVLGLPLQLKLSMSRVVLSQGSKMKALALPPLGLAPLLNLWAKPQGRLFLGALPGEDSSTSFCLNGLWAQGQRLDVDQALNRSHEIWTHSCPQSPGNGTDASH

[3] = cited from earlier work
[4] = low pH-values; cited from earlier work
[5] = target: T2, AR (Homo sapiens, UniProt P10275); details: cited from earlier work
T2 sequence (P10275 1-920): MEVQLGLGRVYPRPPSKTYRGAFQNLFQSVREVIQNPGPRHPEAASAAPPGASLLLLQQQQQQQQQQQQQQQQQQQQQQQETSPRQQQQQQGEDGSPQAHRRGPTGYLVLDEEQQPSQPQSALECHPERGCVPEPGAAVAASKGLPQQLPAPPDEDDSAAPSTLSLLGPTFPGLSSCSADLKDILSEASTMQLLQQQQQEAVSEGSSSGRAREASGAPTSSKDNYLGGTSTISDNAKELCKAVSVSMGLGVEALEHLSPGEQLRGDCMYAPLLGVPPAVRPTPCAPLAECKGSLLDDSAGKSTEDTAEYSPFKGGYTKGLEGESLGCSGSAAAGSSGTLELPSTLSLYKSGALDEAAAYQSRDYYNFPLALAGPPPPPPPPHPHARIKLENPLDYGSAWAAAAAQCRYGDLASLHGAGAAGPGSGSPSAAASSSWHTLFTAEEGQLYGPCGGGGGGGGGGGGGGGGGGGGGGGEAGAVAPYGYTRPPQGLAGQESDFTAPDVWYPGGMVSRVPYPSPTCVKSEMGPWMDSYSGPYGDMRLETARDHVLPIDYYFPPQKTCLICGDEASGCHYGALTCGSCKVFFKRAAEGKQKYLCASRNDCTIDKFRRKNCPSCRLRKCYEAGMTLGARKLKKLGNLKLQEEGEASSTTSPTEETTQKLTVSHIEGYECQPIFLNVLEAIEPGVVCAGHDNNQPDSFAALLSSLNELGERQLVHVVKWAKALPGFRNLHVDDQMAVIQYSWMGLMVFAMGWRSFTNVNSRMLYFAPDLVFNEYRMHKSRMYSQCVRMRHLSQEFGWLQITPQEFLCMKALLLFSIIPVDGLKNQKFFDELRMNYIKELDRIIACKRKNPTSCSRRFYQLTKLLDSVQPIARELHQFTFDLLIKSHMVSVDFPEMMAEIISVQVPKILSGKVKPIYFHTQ

[6] = tested on: estrogen receptor; details: cited from earlier work
[7] = target: T3, PR (Homo sapiens, UniProt P06401); details: cited from earlier work
T3 sequence (P06401 1-933): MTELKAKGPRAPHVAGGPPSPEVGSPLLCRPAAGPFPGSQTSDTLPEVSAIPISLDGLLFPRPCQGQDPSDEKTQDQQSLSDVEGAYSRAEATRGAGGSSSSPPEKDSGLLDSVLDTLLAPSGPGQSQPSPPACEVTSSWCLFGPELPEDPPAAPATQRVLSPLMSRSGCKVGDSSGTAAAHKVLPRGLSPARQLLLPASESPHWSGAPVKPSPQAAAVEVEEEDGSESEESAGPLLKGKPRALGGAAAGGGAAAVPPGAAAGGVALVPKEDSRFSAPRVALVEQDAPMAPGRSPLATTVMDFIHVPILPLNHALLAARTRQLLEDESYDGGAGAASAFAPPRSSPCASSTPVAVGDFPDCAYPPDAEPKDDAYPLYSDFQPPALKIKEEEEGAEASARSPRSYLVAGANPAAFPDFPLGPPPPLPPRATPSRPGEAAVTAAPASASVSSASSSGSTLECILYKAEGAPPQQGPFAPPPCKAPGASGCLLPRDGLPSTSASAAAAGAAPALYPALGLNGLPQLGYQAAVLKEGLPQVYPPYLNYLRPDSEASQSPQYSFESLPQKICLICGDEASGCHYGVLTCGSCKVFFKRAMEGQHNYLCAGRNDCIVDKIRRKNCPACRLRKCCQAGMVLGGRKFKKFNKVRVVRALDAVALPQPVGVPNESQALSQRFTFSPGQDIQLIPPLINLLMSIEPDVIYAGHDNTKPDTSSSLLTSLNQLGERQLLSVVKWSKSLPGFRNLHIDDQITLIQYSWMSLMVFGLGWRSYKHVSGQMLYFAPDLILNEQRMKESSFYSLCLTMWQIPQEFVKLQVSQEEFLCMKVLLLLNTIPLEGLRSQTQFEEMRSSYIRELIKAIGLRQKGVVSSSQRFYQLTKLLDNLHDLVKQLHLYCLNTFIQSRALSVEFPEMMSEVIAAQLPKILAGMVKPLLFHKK

[8] = clinical Phase Ia study: pharmacokinetics of oral 8-PN; type: in vivo, women
From the text: The pharmacokinetic profile of 8-PN is characterized by a complete oral absorption, a low degree of metabolization (less than 60% of dose) and a high pre-systemic elimination (first-liver-pass excretion, about 55% of dose). The high and unexpected pre-systemic elimination leads to a collection of substantial dose parts in the bile fluid from which these dose parts are secreted into the duodenum when gastric signaling occurs with a meal uptake. Respective dose parts are then absorbed again and reach systemic circulation. Data were taken from the clinical Phase la study and represent two volunteers of the lowest dose group (50 mg 8-Prenylnaringenin).
Taking the total area under the curve as a measure for 8-Prenyinaringenin systemic availability, the percentage of the area under the second peak (generated by reabsorption of the pre-systemically eliminated and then biliary secreted dose parts) can be used to estimate those dose parts which undergo pre-systemic elimination after oral dosing. On an average of six women investigated this figure is 54±20%.
Re-increases in drug serum levels show re-absorption of dose parts collected in the bile fluid and subsequently secreted triggered by lunch.

[9] = target: T4, GR (Homo sapiens, UniProt P04150); details: cited from earlier work
T4 sequence (P04150 1-777): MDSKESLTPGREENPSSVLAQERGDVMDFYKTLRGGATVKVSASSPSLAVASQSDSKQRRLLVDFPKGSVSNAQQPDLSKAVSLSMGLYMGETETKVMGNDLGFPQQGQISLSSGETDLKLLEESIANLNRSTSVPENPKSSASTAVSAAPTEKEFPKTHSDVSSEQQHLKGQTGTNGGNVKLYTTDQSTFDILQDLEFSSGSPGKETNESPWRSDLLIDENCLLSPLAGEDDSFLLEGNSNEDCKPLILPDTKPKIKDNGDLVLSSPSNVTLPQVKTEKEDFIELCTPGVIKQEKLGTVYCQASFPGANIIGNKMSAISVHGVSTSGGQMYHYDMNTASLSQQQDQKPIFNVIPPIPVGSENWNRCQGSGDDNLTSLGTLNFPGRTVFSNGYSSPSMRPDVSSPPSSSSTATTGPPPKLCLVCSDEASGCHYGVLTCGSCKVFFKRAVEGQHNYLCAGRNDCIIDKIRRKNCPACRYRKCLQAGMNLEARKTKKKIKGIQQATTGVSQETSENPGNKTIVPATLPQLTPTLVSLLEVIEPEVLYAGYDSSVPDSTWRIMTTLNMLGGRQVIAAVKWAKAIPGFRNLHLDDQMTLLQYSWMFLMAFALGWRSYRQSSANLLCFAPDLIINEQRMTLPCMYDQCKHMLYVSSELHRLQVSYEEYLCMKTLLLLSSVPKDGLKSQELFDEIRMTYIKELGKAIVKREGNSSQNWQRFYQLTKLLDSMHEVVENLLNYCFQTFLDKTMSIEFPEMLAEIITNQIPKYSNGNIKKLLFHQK

[10] = pH-dependent solubility and in vitro dissolution of 8-PN; type: physicochemical
From the text: The solid oral modified release formulations of this invention show a pH-independent drug release in vitro. This is important as the pH varies considerably in the gastro-intestinal tract and continuous release should be achieved independent of the pH. In contrast to C21-progestins (MPA, CPA, DRSP), however, the solubility of 8-PN is pH-dependent. […] The low acid solubility property of 8-Prenylnaringenin results in vitro in slow drug dissolution at pH 1, whereas the dissolution is fast at higher pH-values such as pH 6.8. The resulting dissolution profiles are different at different pH-values. This problem is solved by the solid oral modified release formulation of this invention. […]

[11] = tested on: CYP isoenzymes; assay: metabolism by CYP isoenzymes; type: in vitro ADME
[12] = cited from earlier work; remark: listed apart in the source
[13] = 3 mg oral, daily repeated administration
[14] = single oral intake of 3 mg DRSP

For `C[C@]12CCC(=O)C=C1[C@@H]1C[C@@H]1[C@H]1[C@@H]3[C@@H]4C[C@@H]4[C@@]4(CCC(=O)O4)[C@@]3(C)CC[C@@H]12` [DRSP, Drospirenone], the “suppression of EE induced SHBG or CBG serum levels” value [1] is listed as “does not suppress”, the “binding to SHBG” value [2] is listed as “does not bind” and the AUC [3, 13] is listed as “about 920 ng×h/ml”. For the same compound, the maximum serum level [3, 13] was “about 80 ng/ml”, the “apparent volume of distribution” value ([3]; in vivo) was 4 L/kg and the disposition half-life ([3]; in vivo) was 31 h. For the same compound, the metabolism ([3]; mainly by CYP3A4) was “only slightly metabolized”, the oral absorption ([3]; oral) was “complete” and the AUC0-24h [3, 14] was 0.288 µg·h/mL. For the same compound, the maximum serum levels [3, 14] was 37 ng/mL, the “time at which maximum serum levels were reached” value [3, 14] was 1.7 h and the “stability (opening of carbolactone ring to the inactive acid)” value [4] was “sensitive to low pH-values”.
In the case of `CC(C)=CCc1c(O)cc(O)c2c1OC(c1ccc(O)cc1)CC2=O` (stereo not shown) [Example 8-PN, 5,7-Dihydroxy-2-(4-hydroxyphenyl)-8-(3-methylbut-2-enyl)-chroman-4-on], the “binding or activation of the AR” value [5] is given as “devoid of binding or activation”, the anti-estogenic activity [6] is given as “without any anti-estogenic activity” and the “binding or activation of the PR” value [7] is given as “devoid of binding or activation”. The degree of metabolization ([8]; oral) was “less than 60 % of dose”, the oral absorption ([8]; oral) was “complete” and the “pre-systemic elimination (first-liver-pass excretion)” value ([8]; oral) was “about 55 % of dose”. For the same compound, the “CV of mean AUC” value ([8]; oral dose 250 mg) was 42%, the “CV of mean AUC” value ([8]; oral dose 750 mg) was 29% and the “percentage of the area under the second peak of total AUC (dose parts undergoing pre-systemic elimination)” value ([8]; oral, average of six women) was 54±20%. For the same compound, the “binding or activation of the GR” value [9] was “devoid of binding or activation”, the solubility ([10]; higher at higher pH-values, low at lower pH-values) was “pH-dependent” and the “drug dissolution in vitro” value ([10]; pH 1) was “slow”. The “drug dissolution in vitro” value ([10]; pH 6.8) was “fast”, the “metabolism by CYP isoenzymes” value [11] was “surprisingly low extent of metabolism; also recorded: high metabolic stability” and the “metabolism by CYP isoenzymes” value ([11]; listed as 8-Prenylnaringenin) was “high metabolic stability”.
For `C[C@]12CC[C@@H]3c4ccc(O)cc4CC[C@H]3[C@@H]1CC[C@@H]2O` [Example E2, 17β-estradiol], the “coefficient of variation (CV) of the mean AUC” value (“coefficient of variation” below) ([12]; oral 2 mg E2, N=14) is given as 127%, the “coefficient of variation” value ([12]; oral 4 mg E2, N=14) is given as 91% and the “coefficient of variation” value ([12]; oral 8 mg E2, N=14) is given as 70%. For the same compound, the oral bioavailability ([12]; oral) was 1-3 % of dose.
